{"source": "patent US5254801A", "about": "“Heterologous dominant conditional lethal gene which is a phosphonate monoester hydrolase and use thereof in plants” (Monsanto Company, priority 1990, dated 1993)", "key": {"Arabidopsis callus": {"tested_on": "Arabidopsis callus", "assay_type": "cell-based"}, "[1]": {"tested_on": "E. coli JM101/vector control", "assay": "Conditional lethal phenotype test on MOPS minimal plates", "assay_type": "cell-based", "description": "(§1) The NcoI-BamHI pehA:1 fragment was removed from pMON9420 by restricting the DNA with both enzymes, separating the fragments on an agarose gel, and purifying the pehA fragment from the gel using the GeneClean kit. In a similar manner the BamHI-ClaI pehA:1 fragment was obtained from pMON9421 and both were ligated into an E. coli expression vector to reconstruct the pehA:1 gene behind the RecA promoter with the […] gene 10L leader. The resulting vector, pMON9428 (FIG. 3), was transformed into E. coli strain JM101 using calcium chloride transformation and transformants selected on LB agar with 100 μg/ml spectinomycin. A single colony was isolated and confirmed by restriction mapping to contain pMON9428. The JM101/pMON9428 was then streaked out on LB agar plates containing 100 μg/ml spectinomycin and […] XPP. As a control, JM101 containing the RecA expression vector without the pehA:1 gene was streaked out on the same plate. The JM101/pMON9428 formed blue colonies while the JM101 with the control vector formed white colonies. […] The JM101/pMON9428 and vector control strain were then plated on MOPS minimal medium containing 0.05 mM HK2 PO4 as the phosphate source and 100 μg/ml spectinomycin. […] To test for a conditional lethal phenotype, both strains were streaked side by side on a MOPS minimal plate with 0.05 mM KPO4, 100 μg/ml spectinomycin and 10 mM glyceryl glyphosate. […] To confirm the lethal phenotype was the result of the degradation of the glyceryl glyphosate and subsequent inhibition of aromatic amino acid biosynthesis by glyphosate, both E. coli strains were plated on MOPS minimal medium with 0.05 mM KPO4, 100 μg/ml spectinomycin, 10 mM glyceryl glyphosate and supplemented with aromatic compounds consisting of L-tyrosine, L-tryptophan, L-phenylalanine, each at 100 μg/ml, 2,3 -dihydroxybenzoicacid and para-aminobenzoic acid, each at 5 μg/ml. […] This confirmed that the conditional lethal phenotype observed in the presence of the glyceryl glyphosate was the result of its conversion to and subsequent inhibition of EPSPS by glyphosate."}, "[2]": {"tested_on": "E. coli JM101/pMON9428 (pehA:1)", "assay": "Conditional lethal phenotype test on MOPS minimal plates", "assay_type": "cell-based", "description": "as §1"}, "PG2982 [3]": {"tested_on": "PG2982", "assay": "Growth on glyceryl glyphosate as sole phosphate source", "assay_type": "cell-based, Pseudomonas caryophilli", "settings": "strain PG2982; 0.2 mM in DF minimal medium", "experimental": "Bacteria capable of degrading glyphosate are known (Hallas et al., 1988; Malik et al., 1989; and Moore et al., 1983; Heitkamp et al., 1990). Five of these bacteria (PG2482, LBAA, T10, T12 and CP4) and four strains of E. coli were screened for the rapid degradation of glyceryl glyphosate into inorganic phosphate. The bacteria were inoculated into 2 ml Dworkin-Foster(DF) minimal medium containing glucose, sodium gluconate and potassium citrate (each 0.1%) as carbon source and containing 0.2 mM glyceryl glyphosate as a phosphate source. The Dworkin-Foster minimal medium was made by combining 1 liter sterile H2 O with 1 ml each of A, B, C, E and F, 10 ml D, C-sources to final concentration of 0.1% each and P-source to 0.2 mM.\nBacteria which grew in this medium using glyceryl glyphosate as a sole phosphate source had the ability to cleave both the ester and the phosphonate bond to release the free phosphate. For these bacteria to be useful in the present invention, the first step in the mineralization of glyceryl glyphosate needed is the hydrolysis of the phosphonate ester. […] After a three hour incubation period, the cells were pelleted in a microfuge and the supernatant injected onto an HPLC anion exchange column and glyphosate analyzed as described above. […] The pellet extract was then analyzed for glyphosate product as described above. […]"}, "PG2982 [4]": {"tested_on": "PG2982", "assay": "In vivo (3-14C-) glyceryl glyphosate hydrolysis assay in whole cells", "assay_type": "cell-based, Pseudomonas caryophilli", "settings": "strain PG2982; three hour incubation, 30° C.", "experimental": "Bacteria which grew in this medium using glyceryl glyphosate as a sole phosphate source had the ability to cleave both the ester and the phosphonate bond to release the free phosphate. For these bacteria to be useful in the present invention, the first step in the mineralization of glyceryl glyphosate needed is the hydrolysis of the phosphonate ester. Each of the three bacteria which utilized glyceryl glyphosate as a phosphate source were then assayed for a phosphonate monoester hydrolase activity using an in vivo (3-^14 C-) glyceryl glyphosate assay. A 150 ml culture of each bacteria was grown in DF minimal medium with 0.2 mM HK2 PO4 as a phosphate source in a 500 ml flask, 30° C., with shaking. The bacteria were pelleted by centrifugation at 5,000×g for 10 min and resuspended at 10 mg fresh weight/ml. An assay mix included 50 μl cells plus 10 μl (3-^14 C-) glyceryl glyphosate (10,000 cpm/μl) and kept at 30° C. with shaking. After a three hour incubation period, the cells were pelleted in a microfuge and the supernatant injected onto an HPLC anion exchange column and glyphosate analyzed as described above. The pellet was washed twice with 1 ml 10 mM HEPES, pH 7.0, and resuspended in 25 μl buffer. The cells were lysed with 25 μl quench and the debris pelleted in a microfuge. The pellet extract was then analyzed for glyphosate product as described above. […]"}}}
{"smiles": "O=C(O)CNCP(=O)(O)OCC(O)CO", "note": "(stereo not shown) [glyceryl glyphosate, glycine, N-([hydroxy (2,3 dihydroxy propoxy)phosphonyl]methyl)]", "values": [{"measurement": "Cytotoxicity", "setting": "Arabidopsis callus", "result": "relatively non-cytotoxic"}, {"measurement": "Colony formation with aromatic compound supplement", "setting": "[1]; 10 mM glyceryl glyphosate plus L-tyrosine, L-tryptophan, L-phenylalanine, 2,3-dihydroxybenzoic acid, para-aminobenzoic acid, vector control strain", "result": "formed colonies"}, {"measurement": "Toxicity (colony formation)", "setting": "[1]; 10 mM glyceryl glyphosate, MOPS minimal plate, JM101/vector control", "result": "non-toxic"}, {"measurement": "Colony formation with aromatic compound supplement", "setting": "[2]; 10 mM glyceryl glyphosate plus L-tyrosine, L-tryptophan, L-phenylalanine, 2,3-dihydroxybenzoic acid, para-aminobenzoic acid", "result": "formed colonies"}, {"measurement": "Colony formation (lethal phenotype)", "setting": "[2]; 10 mM glyceryl glyphosate, MOPS minimal plate", "result": "did not form visible colonies"}, {"measurement": "Glyceryl Glyphosate as Phosphate Source", "setting": "PG2982 [3]", "result": "Yes"}, {"measurement": "In vivo Hydrolysis of Glyceryl Glyphosate into Glyphosate", "setting": "PG2982 [4]", "result": "Yes"}]}
